Patent US8334316B2, “Substituted organosulfur compounds and methods of using thereof” (ACEA Biosciences, Inc., priority 2004, dated 2012)
Like-named read-outs stand apart in the source and are kept apart here.

Assay: Acute toxicity, single intravenous injection, LD50 (Bliss method) in Kunming mice
Assay type: in vivo
Conditions: for Dead animals on each day after the single intravenous injection (c3-c11 = day 1-9, c12 = day 10-14): 163.8 mg/kg; for LD50 at 2 weeks: Kunming, mouse, in vivo, iv
Description: To evaluate the in vivo acute, intravenous toxicity of DBTS and ACEA100108 (a derivative of DBTS, see Table 33), the experiments were performed in non-tumor bearing, normal Kunming mice by monitoring the acute response of mice to a single dose of DBTS or ACEA100108 via intravenous injection (i.v.). The number of death for the treated mice was monitored and recorded. LD50 values for these compounds were calculated. Details of the study are provided below.
The experiments to test DBTS and ACEA100108 acute toxicity were performed in mice. The test mice were randomly divided into six groups (five dosing groups and one control group). Each group contained 20 Kunming strain mice, and among them, 50% were male and 50% were female. After administration of a single dose of DBTS or ACEA100108 via intravenous injection (i.v.), the acute response to DBTS or ACEA100108 compound, and the death of the treated mice during the first two weeks were monitored and recorded. The LD50 value was calculated using the Bliss method.
Materials and Method. The test chemical compound were DBTS and ACEA100108, which were dissolved into hydrogenated castor oil in the pre-warmed water bath and made as a 20 mg/ml solution. The solution was further diluted to desired experiment concentrations with the normal saline. The administration volume was 0.5 ml i.v. per mouse and the injection speed was 0.5 ml/0.5 min.
The experimental mice were Kunming strain, provided by the Experimental Animal Department, Shanghai Pharmaceutical Industry Institute. The certificate number of the facility was Animal Facility Certification Number 107. The average weight of the mice was 18-20 gram. Each test group contained 20 Kunming strain mice, and among them, 10 mice were male and 10 mice were female. […] The mice in the control group were only given the same volume of the solvent, which were diluted hydrogenated castor oil. All the testing mice were given a single intravenous injection of DBTS, ACEA100108, or the solvent that served as the control at the injection speed of 0.5 ml/0.5 min. The acute response to DBTS, ACEA100108 or the solvent immediately after the administration, as well as weight change, and the death within the first two weeks of the administration were monitored and recorded. The intravenous injection LD50 values in mice were calculated using the Bliss method.

[1] = female, 163.8 mg/kg single i.v.
[2] = female, 204.8 mg/kg single i.v.

## c1ccc(CSSSCc2ccccc2)cc1 [DBTS, Dibenzyl trisulfide]
50% male, 50% female, 163.8 mg/kg single i.v.
  Percentage of dead animals %: 0%
50% male, 50% female, 20 animals, deaths on day 8 after injection
  Dead animals on each day after the single intravenous injection (c3-c11 = day 1-9, c12 = day 10-14): 0
50% male, 50% female, 20 animals, deaths on days 10-14 after injection
  Dead animals on each day after the single intravenous injection (c3-c11 = day 1-9, c12 = day 10-14): 0 - - - 0
50% male, 50% female, 204.8 mg/kg single i.v.
  Percentage of dead animals %: 15%
50% male, 50% female, 256 mg/kg single i.v.
  Percentage of dead animals %: 45%
50% male, 50% female, 320 mg/kg single i.v.
  Percentage of dead animals %: 85%
50% male, 50% female, 400 mg/kg single i.v.
  Percentage of dead animals %: 100%
Kunming mice, 50% male 50% female, Bliss method
  mouse single i.v. dose LD50, interval in parentheses: 234.96 to 284.56 mg/kg
Both sexes, 50% male, 50% female Kunming mice, single i.v., read-out: LD50
  LD50 at 2 weeks: 259 mg/kg
Both sexes, 50% male, 50% female Kunming mice, single i.v., read-out: LD50 (95% CL)
  LD50 at 2 weeks: 235 to 284 mg/kg
Both sexes, Kunming mice, 50% male 50% female, Bliss method, read-out: mouse single i.v. dose LD50, interval in parentheses
  LD50 at 2 weeks: 235 to 284 mg/kg
Both sexes, Kunming mice, 50% male 50% female, Bliss method, read-out: mouse single i.v. dose LD50 value
  LD50 at 2 weeks: 259 mg/kg
[1]
  Average animal weight (g) Beginning: 19.9 g
  Average animal weight (g) End: 24.5 g
  Percentage of dead animals %: 0%
female, 10 animals, deaths on day 8 after injection
  Dead animals on each day after the single intravenous injection (c3-c11 = day 1-9, c12 = day 10-14): 0
female, 10 animals, deaths on days 10-14 after injection
  Dead animals on each day after the single intravenous injection (c3-c11 = day 1-9, c12 = day 10-14): 0 - - - 0
[2]
  Average animal weight (g) Beginning: 20.5 g
  Percentage of dead animals %: 20%
female, 204.8 mg/kg single i.v., survivors
  Average animal weight (g) End: 24.3 g
female, 256 mg/kg single i.v.
  Average animal weight (g) Beginning: 19.9 g
  Percentage of dead animals %: 50%
female, 256 mg/kg single i.v., survivors
  Average animal weight (g) End: 24.2 g
female, 320 mg/kg single i.v.
  Average animal weight (g) Beginning: 20.6 g
  Percentage of dead animals %: 80%
female, 320 mg/kg single i.v., survivors
  Average animal weight (g) End: 24.5 g
female, 400 mg/kg single i.v.
  Average animal weight (g) Beginning: 19.8 g
  Percentage of dead animals %: 100%
female, female Kunming mice, single i.v., read-out: LD50
  LD50 at 2 weeks: 256 mg/kg
female, female Kunming mice, single i.v., read-out: LD50 (95% CL)
  LD50 at 2 weeks: 222 to 296 mg/kg
male, 163.8 mg/kg single i.v.
  Average animal weight (g) Beginning: 20.0 g
  Average animal weight (g) End: 26.9 g
  Percentage of dead animals %: 0%
male, 10 animals, deaths on day 8 after injection
  Dead animals on each day after the single intravenous injection (c3-c11 = day 1-9, c12 = day 10-14): 0
male, 10 animals, deaths on days 10-14 after injection
  Dead animals on each day after the single intravenous injection (c3-c11 = day 1-9, c12 = day 10-14): 0 - - - 0
male, 204.8 mg/kg single i.v.
  Average animal weight (g) Beginning: 19.9 g
  Percentage of dead animals %: 10%
male, 204.8 mg/kg single i.v., survivors
  Average animal weight (g) End: 26.6 g
male, 256 mg/kg single i.v.
  Average animal weight (g) Beginning: 20.4 g
  Percentage of dead animals %: 40%
male, 256 mg/kg single i.v., survivors
  Average animal weight (g) End: 26.3 g
male, 320 mg/kg single i.v.
  Average animal weight (g) Beginning: 20.1 g
  Percentage of dead animals %: 90%
male, 320 mg/kg single i.v., survivors
  Average animal weight (g) End: 25.0 g
male, 400 mg/kg single i.v.
  Average animal weight (g) Beginning: 20.1 g
  Percentage of dead animals %: 100%
male, male Kunming mice, single i.v., read-out: LD50
  LD50 at 2 weeks: 261 mg/kg
male, male Kunming mice, single i.v., read-out: LD50 (95% CL)
  LD50 at 2 weeks: 230 to 296 mg/kg
